From patent US10597388B2, “Pyridazinone herbicides” (FMC CORPORATION, priority 2014, dated 2020)

Assays:
Format in all cases: in vivo
rice (Oryza sativa) = assay: Test B flooded paddy test; details: 250 g ai/ha, Flood; visual rating on scale of 0 to 100 where 0 is no effect and 100 is complete control; 13 to 15 d after treatment
Outline: (§1)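 Plants at the 2-leaf stage were flooded to 3 cm above soil, and test compounds were applied directly into the paddy water, which was held at that depth throughout. After 13 to 15 d in a greenhouse, injury was rated visually against untreated controls on a 0–100 scale (0 no effect, 100 complete control).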

[1] = tested on: barnyardgrass (Echinochloa crus-galli); assay: Test B flooded paddy test; details: 250 g ai/ha, Flood; visual rating on scale of 0 to 100 where 0 is no effect and 100 is complete control; 13 to 15 d after treatment
Outline: as §1

[2] = tested on: sedge, umbrella (small-flower umbrella sedge, Cyperus difformis); assay: Test B flooded paddy test; details: 250 g ai/ha, Flood; visual rating on scale of 0 to 100 where 0 is no effect and 100 is complete control; 13 to 15 d after treatment
Outline: as §1

[3] = tested on: ducksalad (Heteranthera limosa); assay: Test B flooded paddy test; details: 250 g ai/ha, Flood; visual rating on scale of 0 to 100 where 0 is no effect and 100 is complete control; 13 to 15 d after treatment
Outline: as §1

[4] = tested on: wheat (Triticum aestivum); assay: Test A greenhouse herbicide test, pre- and postemergence; details: Postemergence
Outline: (§2)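 Seeds sown in loam–sand blend got a preemergence directed soil spray of compound in non-phytotoxic solvent with surfactant. Postemergence treatment was given at 2–10 cm, one- to two-leaf stage. After ~10 d in greenhouse, injury was rated visually vs untreated controls, 0 (no effect) to 100 (complete control).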

corn (Zea mays) = assay: as above; details: Postemergence
Outline: as §2

[5] = tested on: ragweed (common ragweed, Ambrosia elatior); assay: as above
Outline: as §2

kochia (Kochia scoparia) = assay: as above
Outline: as §2

[6] = tested on: ryegrass, Italian (Italian ryegrass, Lolium multiflorum); assay: as above
Outline: as §2

[7] = tested on: barnyardgrass (Echinochloa crus-galli); assay: as above
Outline: as §2

[8] = tested on: foxtail, giant (giant foxtail, Setaria faberii); assay: as above
Outline: as §2

[9] = tested on: pigweed (Amaranthus retroflexus); assay: as above
Outline: as §2

[10] = tested on: galium (catchweed bedstraw, Galium aparine); assay: Test A greenhouse herbicide test, postemergence
Outline: (§3)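 Greenhouse postemergence test: formulated chemicals sprayed on one- to two-leaf plants (2 to 10 cm), grown in loam soil blended with sand. Injury assessed visually about 10 d later against untreated controls, scored 0 (no effect) to 100 (complete control).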

[11] = tested on: blackgrass (Alopecurus myosuroides); assay: Test A greenhouse herbicide test, postemergence
Outline: as §3

[12] = 125 g ai/ha, 0 to 100 scale, 0 no effect, 100 complete control
[13] = 500 g ai/ha, visual rating after approx. 10 d, 0 to 100 scale (0 no effect, 100 complete control)
[14] = Postemergence, 125 g ai/ha, 0 to 100 scale, 0 no effect, 100 complete control
[15] = Postemergence, 500 g ai/ha, visual rating after approx. 10 d, 0 to 100 scale (0 no effect, 100 complete control)
[16] = Preemergence, 125 g ai/ha, visual injury rating, 0 to 100 scale (0 no effect, 100 complete control), approx. 10 d
[17] = Preemergence, 500 g ai/ha, 0 to 100 scale where 0 is no effect and 100 is complete control

Row | Structure (SMILES) | Plant response rating, Rice (rice (Oryza sativa)) | Plant response rating, Barnyardgrass [1] | Plant response rating, Sedge, Umbrella [2] | Plant response rating, Ducksalad [3] | Plant response rating, Wheat [4, 12] | Plant response rating, Wheat [4, 13] | Plant response rating, Corn (corn (Zea mays); [12]) | Plant response rating, Corn (corn (Zea mays); [13]) | Plant response rating, Ragweed [5, 14] | Plant response rating, Ragweed [5, 15] | Plant response rating, Ragweed [5, 16] | Plant response rating, Ragweed [5, 17] | Plant response rating, Kochia (kochia (Kochia scoparia); [14]) | Plant response rating, Kochia (kochia (Kochia scoparia); [15]) | Plant response rating, Kochia (kochia (Kochia scoparia); [16]) | Plant response rating, Kochia (kochia (Kochia scoparia); [17]) | Plant response rating, Ryegrass, Italian [6, 14] | Plant response rating, Ryegrass, Italian [6, 15] | Plant response rating, Ryegrass, Italian [6, 16] | Plant response rating, Ryegrass, Italian [6, 17] | also measured
1 | Cc1ccc2ccccc2c1-c1c(OS(C)(=O)=O)c(Br)nn(C)c1=O [Compound 155] | 20 | 0 | 65 | 50 | 30 | 50 | 0 | 20 | 100 | 100 | 90 | 90 | 70 | 80 | 20 | 90 | 90 | 90 | 70 | 90 | Plant response rating, Barnyardgrass [7, 14]: 30; Plant response rating, Barnyardgrass [7, 15]: 80; Plant response rating, Barnyardgrass [7, 16]: 50; Plant response rating, Barnyardgrass [7, 17]: 80; Plant response rating, Foxtail, Giant [8, 14]: 80; Plant response rating, Foxtail, Giant [8, 15]: 90; Plant response rating, Foxtail, Giant [8, 16]: 60; Plant response rating, Foxtail, Giant [8, 17]: 90; Plant response rating, Pigweed [9, 14]: 90; Plant response rating, Pigweed [9, 15]: 100; Plant response rating, Pigweed [9, 16]: 100; Plant response rating, Pigweed [9, 17]: 100; Plant response rating, Galium [10, 12]: 90; Plant response rating, Galium [10, 13]: 90; Plant response rating, Blackgrass [11, 12]: 60; Plant response rating, Blackgrass [11, 13]: 70
2 | CC(=O)Oc1c(C)nn(C)c(=O)c1-c1ccc(Cl)c2ccccc12 [Compound 157] | 0 | 20 | 75 | 0 | 0 | 50 | 0 | 40 | 100 | 100 | 60 | 90 | 100 | 100 | 100 | 100 | 100 | 100 | 100 | 100 | Plant response rating, Barnyardgrass [7, 14]: 50; Plant response rating, Barnyardgrass [7, 15]: 80; Plant response rating, Barnyardgrass [7, 16]: 70; Plant response rating, Barnyardgrass [7, 17]: 90; Plant response rating, Foxtail, Giant [8, 14]: 60; Plant response rating, Foxtail, Giant [8, 15]: 80; Plant response rating, Foxtail, Giant [8, 16]: 50; Plant response rating, Foxtail, Giant [8, 17]: 80; Plant response rating, Pigweed [9, 14]: 90; Plant response rating, Pigweed [9, 15]: 100; Plant response rating, Pigweed [9, 16]: 100; Plant response rating, Pigweed [9, 17]: 100; Plant response rating, Galium [10, 12]: 100; Plant response rating, Galium [10, 13]: 100; Plant response rating, Blackgrass [11, 12]: 60; Plant response rating, Blackgrass [11, 13]: 70
3 | Cc1ccc2sc(C)c(-c3c(OCC#N)c(C)nn(C)c3=O)c2c1 [Compound 160] | 0 | 0 | 0 | 0 | 0 | 0 | 0 | 0 | 70 | 80 | 30 | 80 | 30 | 60 | 20 | 20 | 30 | 90 | 20 | 80 | Plant response rating, Barnyardgrass [7, 14]: 10; Plant response rating, Barnyardgrass [7, 15]: 20; Plant response rating, Barnyardgrass [7, 16]: 10; Plant response rating, Barnyardgrass [7, 17]: 10; Plant response rating, Foxtail, Giant [8, 14]: 10; Plant response rating, Foxtail, Giant [8, 15]: 20; Plant response rating, Foxtail, Giant [8, 16]: 10; Plant response rating, Foxtail, Giant [8, 17]: 30; Plant response rating, Pigweed [9, 14]: 80; Plant response rating, Pigweed [9, 15]: 90; Plant response rating, Pigweed [9, 16]: 50; Plant response rating, Pigweed [9, 17]: 100; Plant response rating, Galium [10, 12]: 70; Plant response rating, Galium [10, 13]: 90; Plant response rating, Blackgrass [11, 12]: 10; Plant response rating, Blackgrass [11, 13]: 20
4 | Cc1nn(C)c(=O)c(-c2c([N+](=O)[O-])ccc3ccccc23)c1OC(=O)C(C)(C)C [Compound 163] | 0 | 0 | 0 | 0 | 0 | 0 | 0 | 0 | 0 | 0 | 0 | 0 | 0 | 20 | 0 | 0 | 20 | 70 | 10 | 50 | Plant response rating, Barnyardgrass [7, 14]: 0; Plant response rating, Barnyardgrass [7, 15]: 0; Plant response rating, Barnyardgrass [7, 16]: 0; Plant response rating, Barnyardgrass [7, 17]: 0; Plant response rating, Foxtail, Giant [8, 14]: 0; Plant response rating, Foxtail, Giant [8, 15]: 0; Plant response rating, Foxtail, Giant [8, 16]: 0; Plant response rating, Foxtail, Giant [8, 17]: 0; Plant response rating, Pigweed [9, 14]: 0; Plant response rating, Pigweed [9, 15]: 20; Plant response rating, Pigweed [9, 16]: 30; Plant response rating, Pigweed [9, 17]: 70; Plant response rating, Galium [10, 12]: 30; Plant response rating, Galium [10, 13]: 60; Plant response rating, Blackgrass [11, 12]: 0; Plant response rating, Blackgrass [11, 13]: 20
5 | Cc1n[nH]c(=O)c(-c2cccc3ccccc23)c1O [Compound 169] | 0 | 0 | 0 | 0 | 0 | 30 | 0 | 30 | 0 | 80 | 0 | 20 | 40 | 100 | 20 | 90 | 70 | 100 | 80 | 100 | Plant response rating, Barnyardgrass [7, 14]: 0; Plant response rating, Barnyardgrass [7, 15]: 20; Plant response rating, Barnyardgrass [7, 16]: 0; Plant response rating, Barnyardgrass [7, 17]: 30; Plant response rating, Foxtail, Giant [8, 14]: 0; Plant response rating, Foxtail, Giant [8, 15]: 30; Plant response rating, Foxtail, Giant [8, 16]: 0; Plant response rating, Foxtail, Giant [8, 17]: 30; Plant response rating, Pigweed [9, 14]: 20; Plant response rating, Pigweed [9, 15]: 70; Plant response rating, Pigweed [9, 16]: 50; Plant response rating, Pigweed [9, 17]: 100; Plant response rating, Galium [10, 12]: 30; Plant response rating, Galium [10, 13]: 70; Plant response rating, Blackgrass [11, 12]: 10; Plant response rating, Blackgrass [11, 13]: 20
